Results as given in ChEMBL document CHEMBL1201862, “PubChem BioAssay data set” (2004).
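Step 1: Grow cells in 96-well plates. Step 2: Expose to compound for 48 hours at 5 concentrations. Step 3: Interpolate endpoints linearly; if unreached, use highest concentration. Abbreviation: GI50, concentration required for 50% inhibition of growth.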 Activity calls are given as the source filed them. Cut-off read from the data, not from the text of the source: active = GI50 up to about 1.1 µM and inactive = higher.

Tests used:
Test in all cases: growth of human tumour cells (NCI), 48 h
OVCAR-5 = system: OVCAR-5
HL-60 = system: HL-60
ACHN = system: ACHN
SK-MEL-5 = system: SK-MEL-5
OVCAR-8 = system: OVCAR-8
KM12 = system: KM12
U-251 = system: U-251
TK-10 = system: TK-10
NCI-H226 = system: NCI-H226
UO-31 = system: UO-31
SR = system: SR
HOP-62 = system: HOP-62
M14 = system: M14
RPMI-8226 = system: RPMI-8226
786-0 = system: 786-0
OVCAR-3 = system: OVCAR-3
SK-MEL-2 = system: SK-MEL-2
SK-MEL-28 = system: SK-MEL-28

In the case of `O=C(/C=C/c1ccccc1)/C=C/c1ccccc1O`, the GI50 (OVCAR-5) is reported as 29.3 µM (inactive), the GI50 (HL-60) is reported as 12.9 µM (inactive) and the GI50 (ACHN) is reported as 19.4 µM (inactive). The GI50 (SK-MEL-5) was 20.1 µM (inactive), the GI50 (OVCAR-8) was 17 µM (inactive) and the GI50 (KM12) was 17.8 µM (inactive). The GI50 (U-251) was 17.6 µM (inactive), the GI50 (TK-10) was 30.1 µM (inactive) and the GI50 (NCI-H226) was 22 µM (inactive). For the same compound, the GI50 (UO-31) was 16.4 µM (inactive), the GI50 (SR) was 26.6 µM (inactive) and the GI50 (HOP-62) was 38.8 µM (inactive). The GI50 (M14) was 21 µM (inactive), the GI50 (RPMI-8226) was 16.4 µM (inactive) and the GI50 (786-0) was 16.7 µM (inactive). The GI50 (OVCAR-3) was 0.0401 µM (active), the GI50 (SK-MEL-2) was 59.3 µM (inactive) and the GI50 (SK-MEL-28) was 34.6 µM (inactive).
In the case of `CCN(CC)c1c(C(=O)/C=C/c2ccc(OC)cc2)c(-c2ccccc2)nn(C)c1=O`, the GI50 (OVCAR-5) is reported as 5.46 µM (inactive), the GI50 (HL-60) is reported as 6.7 µM (inactive) and the GI50 (ACHN) is reported as 10.9 µM (inactive). For the same compound, the GI50 (SK-MEL-5) was 8.41 µM (inactive), the GI50 (OVCAR-8) was 22.2 µM (inactive) and the GI50 (KM12) was 12.7 µM (inactive). For the same compound, the GI50 (U-251) was 13.5 µM (inactive), the GI50 (TK-10) was 32.8 µM (inactive) and the GI50 (NCI-H226) was 16.1 µM (inactive). For the same compound, the GI50 (UO-31) was 36.6 µM (inactive), the GI50 (SR) was 5.55 µM (inactive) and the GI50 (HOP-62) was 45.9 µM (inactive). The GI50 (786-0) was 14.1 µM (inactive), the GI50 (SK-MEL-2) was 18.6 µM (inactive) and the GI50 (SK-MEL-28) was 16.7 µM (inactive).
In the case of `COC(=O)C1=C(c2cc(OC)c(OC)c(OC)c2)OC(c2cc(OC)c(OC)c(OC)c2)C1COC(C)=O` (stereo not given), the GI50 (OVCAR-5) is reported as 18.1 µM (inactive), the GI50 (HL-60) is reported as 10.3 µM (inactive) and the GI50 (ACHN) is reported as 30.1 µM (inactive). For the same compound, the GI50 (SK-MEL-5) was 29.4 µM (inactive), the GI50 (OVCAR-8) was 59.7 µM (inactive) and the GI50 (KM12) was 51.8 µM (inactive). For the same compound, the GI50 (U-251) was 51.6 µM (inactive), the GI50 (TK-10) was 42.4 µM (inactive) and the GI50 (NCI-H226) was 46.1 µM (inactive). The GI50 (UO-31) was 27.2 µM (inactive), the GI50 (SR) was 16.7 µM (inactive) and the GI50 (HOP-62) was 36.6 µM (inactive). The GI50 (M14) was 41 µM (inactive), the GI50 (RPMI-8226) was 29.1 µM (inactive) and the GI50 (786-0) was 26.1 µM (inactive). For the same compound, the GI50 (OVCAR-3) was 33.7 µM (inactive) and the GI50 (SK-MEL-28) was > 100 µM (inactive).
In the case of `c1ccc(-c2[nH]c(-c3ccccc3)c(-c3cnccn3)c2-c2cnccn2)cc1`, the GI50 (OVCAR-5) is reported as > 100 µM (inactive), the GI50 (HL-60) is reported as > 100 µM (inactive) and the GI50 (ACHN) is reported as > 100 µM (inactive). For the same compound, the GI50 (SK-MEL-5) was > 100 µM (inactive), the GI50 (OVCAR-8) was > 100 µM (inactive) and the GI50 (KM12) was 30.3 µM (inactive). For the same compound, the GI50 (U-251) was > 100 µM (inactive), the GI50 (TK-10) was > 100 µM (inactive) and the GI50 (NCI-H226) was > 100 µM (inactive). The GI50 (UO-31) was > 100 µM (inactive), the GI50 (SR) was 82.8 µM (inactive) and the GI50 (HOP-62) was > 100 µM (inactive). For the same compound, the GI50 (M14) was > 100 µM (inactive), the GI50 (RPMI-8226) was 82.6 µM (inactive) and the GI50 (786-0) was > 100 µM (inactive). For the same compound, the GI50 (OVCAR-3) was > 100 µM (inactive), the GI50 (SK-MEL-2) was > 100 µM (inactive) and the GI50 (SK-MEL-28) was > 100 µM (inactive).
`Nc1nc2c(nnn2C2C=C(CO)C(O)C2O)c(=O)[nH]1` (stereo not given) was tested, and the GI50 (OVCAR-5) was > 100 µM (inactive), the GI50 (ACHN) was > 100 µM (inactive) and the GI50 (SK-MEL-5) was > 100 µM (inactive). For the same compound, the GI50 (OVCAR-8) was > 100 µM (inactive), the GI50 (KM12) was > 100 µM (inactive) and the GI50 (U-251) was > 100 µM (inactive). The GI50 (TK-10) was > 100 µM (inactive), the GI50 (NCI-H226) was > 100 µM (inactive) and the GI50 (UO-31) was > 100 µM (inactive). For the same compound, the GI50 (SR) was > 100 µM (inactive), the GI50 (HOP-62) was > 100 µM (inactive) and the GI50 (M14) was > 100 µM (inactive). The GI50 (786-0) was 68.5 µM (inactive), the GI50 (OVCAR-3) was > 100 µM (inactive) and the GI50 (SK-MEL-2) was 24.2 µM (inactive). The GI50 (SK-MEL-28) was > 100 µM (inactive).
With `CCc1cccc(CC)c1NC(=O)/C(Cl)=C(/Cl)C(=O)O` the GI50 (OVCAR-5) was > 100 µM (inactive), the GI50 (HL-60) was 5.05 µM (inactive) and the GI50 (ACHN) was 26.9 µM (inactive). For the same compound, the GI50 (SK-MEL-5) was 36.7 µM (inactive), the GI50 (OVCAR-8) was 18.4 µM (inactive) and the GI50 (KM12) was > 100 µM (inactive). For the same compound, the GI50 (U-251) was > 58.2 µM (inactive), the GI50 (TK-10) was 34 µM (inactive) and the GI50 (NCI-H226) was > 100 µM (inactive). The GI50 (UO-31) was 32.4 µM (inactive), the GI50 (SR) was > 44.3 µM (inactive) and the GI50 (HOP-62) was > 100 µM (inactive). For the same compound, the GI50 (M14) was 17.1 µM (inactive), the GI50 (RPMI-8226) was 32.1 µM (inactive) and the GI50 (786-0) was > 42.1 µM (inactive). The GI50 (OVCAR-3) was 32.8 µM (inactive), the GI50 (SK-MEL-2) was > 100 µM (inactive) and the GI50 (SK-MEL-28) was 35.3 µM (inactive).
With `CC1=NN(C(=O)Cc2ccccc2)C(=O)/C1=C\c1ccc(O)cc1` the GI50 (OVCAR-5) was > 100 µM (inactive), the GI50 (HL-60) was > 100 µM (inactive) and the GI50 (ACHN) was > 100 µM (inactive). The GI50 (SK-MEL-5) was > 100 µM (inactive), the GI50 (OVCAR-8) was > 100 µM (inactive) and the GI50 (KM12) was > 100 µM (inactive). The GI50 (U-251) was > 100 µM (inactive), the GI50 (TK-10) was > 100 µM (inactive) and the GI50 (NCI-H226) was > 100 µM (inactive). For the same compound, the GI50 (UO-31) was > 100 µM (inactive), the GI50 (HOP-62) was > 100 µM (inactive) and the GI50 (M14) was > 100 µM (inactive). The GI50 (RPMI-8226) was > 100 µM (inactive), the GI50 (786-0) was > 100 µM (inactive) and the GI50 (OVCAR-3) was > 100 µM (inactive). For the same compound, the GI50 (SK-MEL-2) was > 100 µM (inactive) and the GI50 (SK-MEL-28) was > 100 µM (inactive).
`COC(=O)c1ccc(Cc2ccc(C(=O)OC)o2)o1` was tested, and the GI50 (OVCAR-5) was > 378 µM (inactive), the GI50 (HL-60) was > 378 µM (inactive) and the GI50 (ACHN) was > 378 µM (inactive). For the same compound, the GI50 (SK-MEL-5) was > 378 µM (inactive), the GI50 (OVCAR-8) was > 378 µM (inactive) and the GI50 (KM12) was > 378 µM (inactive). For the same compound, the GI50 (U-251) was > 378 µM (inactive), the GI50 (TK-10) was > 378 µM (inactive) and the GI50 (NCI-H226) was > 378 µM (inactive). For the same compound, the GI50 (SR) was > 378 µM (inactive), the GI50 (HOP-62) was > 378 µM (inactive) and the GI50 (RPMI-8226) was > 378 µM (inactive). For the same compound, the GI50 (786-0) was > 378 µM (inactive), the GI50 (OVCAR-3) was > 378 µM (inactive) and the GI50 (SK-MEL-2) was > 378 µM (inactive). The GI50 (SK-MEL-28) was > 378 µM (inactive).
